In patent US20260034253A1, “NECTIN-4 MINIPROTEIN CONJUGATES” (Aktis Oncology, Inc., priority 2022, published 2026):
Numbered stars: 1 amine (or outer) side, 2 acyl side, 3 side chain; on linkers, the order of the positions; unused ones are H or OH. Bridge positions count the residues as written; N and C are the ends. Square brackets hold non-standard residues; d marks the D form. Ends that are not written are not given here. * marks the point of attachment. Biotin = O=C1N[C@H]2[C@H](CS[C@H]2CCCCC(=O)*)N1; X1 = O=C([C@H](CCCCO)N[*:1])[*:2]; Cit = NC(=O)NCCC[C@H](N)C(=O)O; PEG4 = NCCOCCOCCOCCOCCC(=O)O

biological target: T1, human Nectin-4 (Homo sapiens, UniProt Q96NY8); assay: Surface plasmon resonance (Biacore T200) binding to human Nectin-4; conditions: Table 2B, binding affinities of exemplary compounds to Nectin-4, read-out: Binding Affinity
T1 sequence (Q96NY8 32-510): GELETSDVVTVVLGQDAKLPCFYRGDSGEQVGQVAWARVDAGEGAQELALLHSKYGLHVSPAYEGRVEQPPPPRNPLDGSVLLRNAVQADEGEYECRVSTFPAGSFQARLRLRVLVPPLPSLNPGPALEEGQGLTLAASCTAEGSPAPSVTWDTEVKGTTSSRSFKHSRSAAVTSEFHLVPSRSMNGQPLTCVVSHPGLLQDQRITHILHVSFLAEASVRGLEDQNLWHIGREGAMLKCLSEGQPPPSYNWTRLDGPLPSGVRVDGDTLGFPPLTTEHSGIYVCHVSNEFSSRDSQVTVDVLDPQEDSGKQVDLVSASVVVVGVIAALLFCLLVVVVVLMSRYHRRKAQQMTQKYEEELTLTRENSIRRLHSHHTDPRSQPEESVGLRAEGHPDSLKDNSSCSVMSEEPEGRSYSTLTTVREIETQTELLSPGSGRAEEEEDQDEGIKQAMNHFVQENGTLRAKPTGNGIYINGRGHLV
Procedure: Peptide binding affinity to the target protein was measured by SPR using a Biacore T200 instrument. The target protein was covalently coupled to a Biacore chip surface using free amine-coupling chemistry (NHS/EDC) and all uncoupled sites were blocked with ethanolamine. Free peptides were flowed over the target protein surface in increasing concentrations to measure association (KA) and dissociation ([…]) to calculate the equilibrium dissociation constant (KD) using an appropriate binding model (see, e.g., Nikolas Stroth, J Biol Methods. 2016; 3 (1)).
In all figures (FIGS. 1A, 1B, 2A, and 2B), lines on graphs are labeled from top to bottom, beginning with letter “a,” and the corresponding concentration is noted to the right of the figure, next to the letter designating each line.
Surface plasmon resonance (SPR) analyses were performed using Biacore T200 (GE Healthcare). Target protein (“ligand”) was immobilized to a CM5 Series S sensor chip (Cytiva) using amine-coupling chemistry. Running buffer was 0.05% Surfactant P20 in HEPES buffered saline (HBS-P), pH 7.4 (Cytiva). Immobilization was performed at 25° C. Carboxyl groups in each flow cell were activated using a 1:1 mixture of 0.4 M 1-ethyl-3-(3-dimethylaminopropyl)-carbodiimide in water (EDC) and 0.1 M N-hydroxysuccinimide in water (NHS) for 7 minutes. The ligand was prepared in 10 mM Sodium acetate pH 5 (Cytiva). Pulsatile injections were made to target a specific immobilization level. Any remaining amine-reactive esters on the chip surface were blocked with a 7-minute injection of 1 M ethanolamine, pH 8.5. Three 10-second pulses of 50 mM Sodium hydroxide were then made to remove any unbound ligand. Reference cells were modified using amine coupling chemistry, omitting ligand injection.
Increase in signal (RU) is proportional to an increase in binding events between the analyte and ligand surface. The injection was then stopped, and dissociation was measured. The resulting sensorgram has reference surface and blank injection subtracted prior to curve fitting. Measured association (ka, 1/M^s−1) and dissociation (kd, s^−1) were fit to a 1:1 binding model to calculate an equilibrium dissociation constant, KD(M) for each analyte. Equilibrium binding constants (KD) and binding inhibition constants (Ki) estimated from surface plasmon resonance (SPR) or DELFIA® binding assays for exemplary compounds as set forth in Table 2A.
In this example, affinity for mouse Nectin-4 (FIG. 3A) and human Nectin-4 (FIG. 3B) were measured using a 1:1 binding model at twenty-five degrees Celsius. In both of FIGS. 3A and 3B, lines on graphs were labeled from top to bottom, beginning with letter a, and the corresponding concentration was noted to the right of the figure.

Row | Compound | Kd
1 | {Biotin-PEG4}-CEYDEEFFTALAQLRGGDICYYIQAKFQYLPGLCIEEILDNLGCS (disulfide 1-34, 20-44) [Compound C162] | 8.8 nM
2 | {Biotin-PEG4}-CEYDEEFFTALA[Cit]LRGDDICSYIQA[X1]FQYLPGLCIEEILDNLGCS-OH (disulfide 1-34, 20-44) [Compound C170] | 8.8 nM
3 | {Biotin-PEG4}-CEYDEEFFTALARLRGGDICYYIQAKFQYLPKLCIEEILDNLGCS (disulfide 1-34, 20-44) [Compound C166] | 0.75 nM
4 | {Biotin-PEG4}-CDYDEQFFTALKRLRGDDICEYIQASFQYLPGLCIEEILDNLGCS (disulfide 1-34, 20-44) [Compound C193] | 1 nM
5 | {Biotin-PEG4}-CEYDEEFFTALARLRGGDICQYIQAKFQYLPGQCIEEILDNLGCS-OH (disulfide 1-34, 20-44) [Compound C149] | 0.75 nM
6 | {Biotin-PEG4}-CEYDEEFFTALKRLRGGDICDYIQASFQYLPGECIEEILDNLGCS (disulfide 1-34, 20-44) [Compound C203] | 2.3 nM
7 | {Biotin-PEG4}-CEYDEEFFTALKRLRGDDICSYIQASFQYLPGLCIEEILDNLGCS (disulfide 1-34, 20-44) [Compound C182] | 3 nM
8 | CC[C@H](C)[C@@H]1NC(=O)[C@H](Cc2ccc(O)cc2)NC(=O)[C@H](CO)NC(=O)[C@@H]2CSSC[C@@H](C(=O)N[C@@H](CO)C(=O)O)NC(=O)CNC(=O)[C@H](CC(C)C)NC(=O)[C@H](CC(N)=O)NC(=O)[C@H](CC(=O)O)NC(=O)[C@H](CC(C)C)NC(=O)[C@H]([C@@H](C)CC)NC(=O)[C@H](CCC(=O)O)NC(=O)[C@H](CCC(=O)O)NC(=O)[C@H]([C@@H](C)CC)NC(=O)[C@H](CSSC[C@H](NC(=O)CCOCCOCCOCCOCCNC(=O)CCCC[C@@H]3SC[C@@H]4NC(=O)N[C@@H]43)C(=O)N[C@@H](CCC(=O)O)C(=O)N[C@@H](Cc3ccc(O)cc3)C(=O)N[C@@H](CC(=O)O)C(=O)N[C@@H](CCC(=O)O)C(=O)N[C@@H](CCC(=O)O)C(=O)N[C@@H](Cc3ccccc3)C(=O)N[C@@H](Cc3ccccc3)C(=O)N[C@@H]([C@@H](C)O)C(=O)N[C@@H](C)C(=O)N[C@@H](CC(C)C)C(=O)N[C@@H](CCCCN)C(=O)N[C@@H](CCCNC(=N)N)C(=O)N[C@@H](CC(C)C)C(=O)N[C@@H](CCCNC(=N)N)C(=O)NCC(=O)NCC(=O)N[C@@H](CC(=O)O)C(=O)N[C@@H]([C@@H](C)CC)C(=O)N2)NC(=O)[C@H](CC(C)C)NC(=O)CNC(=O)[C@@H]2CCCN2C(=O)[C@H](CC(C)C)NC(=O)[C@H](Cc2ccc(O)cc2)NC(=O)[C@H](CCC(N)=O)NC(=O)[C@H](Cc2ccccc2)NC(=O)[C@H](CO)NC(=O)[C@H](C)NC(=O)[C@H](CCC(N)=O)NC1=O [Compound C179] | 1.8 nM
9 | {Biotin-PEG4}-CEYDEEFFTALASLRGGDICYYIQAKFQYLPGLCIEEILDNLGCS-OH (disulfide 1-34, 20-44) [Compound C161] | 7.5 nM
10 | {Biotin-PEG4}-CDYDEEFFTALKRLRGGDICSYIQASFQYLPGLCIEEILDNLGCS (disulfide 1-34, 20-44) [Compound C189] | 1.1 nM
11 | {Biotin-PEG4}-CEYDGEFFTALARLRGADICEYIQAKFQYYPGLCIEEILDNLGCS (disulfide 1-34, 20-44) [Compound C144] | 3.7 nM
12 | {Biotin-PEG4}-CEYDEEFFTALKRLRGGDICDYIQASFQYLPGLCIEEILDNLGCS-OH (disulfide 1-34, 20-44) [Compound C200] | 2 nM
13 | {Biotin-PEG4}-CEYDEEFFTALARLRGGDICYYILAKFQYLPGECIEEILDNLGCS (disulfide 1-34, 20-44) [Compound C145] | 1.3 nM
14 | {Biotin-PEG4}-CEYDEEFFTALKRLRGGDICEYIQAAFQYLPGLCIEEILDNLGCS (disulfide 1-34, 20-44) [Compound C198] | 2.3 nM
15 | {Biotin-PEG4}-CEYDEEFFTALARLRGGDICEYIQAKFQYLEGLCIEEILDNLGCS-OH (disulfide 1-34, 20-44) [Compound C150] | 1 nM
16 | {Biotin-PEG4}-CDYDEEFFTALKRLRGDDICEYIQASFQYLPGLCIEEILDNLGCS-OH (disulfide 1-34, 20-44) [Compound C191] | 1.4 nM
17 | {Biotin-PEG4}-CEYDEEFFTALKRLRGADICDYIQASFQYLPGLCIEEILDNLGCS (disulfide 1-34, 20-44) [Compound C195] | 2.3 nM
18 | {Biotin-PEG4}-CEYDEQFFTALKRLRGADICSYIQASFQYLPGLCIEEILDNLGCS (disulfide 1-34, 20-44) [Compound C185] | 1 nM
19 | {Biotin-PEG4}-CEYDEEFFTALARLRGADICYYIQAKFQYLPGDCIEEILDNLGCS (disulfide 1-34, 20-44) [Compound C140] | 1.1 nM
20 | {Biotin-PEG4}-CEYDEEFFTALARLRGGDICYYIQA[X1]FQYLPGLCIEEILDNLGCS-OH (disulfide 1-34, 20-44) [Compound C164] | 5 nM
21 | {Biotin-PEG4}-CEYDEQFFTALKRLRGADICEYIQASFQYLPGLCIEEILDNLGCS (disulfide 1-34, 20-44) [Compound C183] | 1.2 nM
22 | {Biotin-PEG4}-CEYDEEFFTALARLRGGDICDYIQAKFQYLPGLCIAEILDNLGCS (disulfide 1-34, 20-44) [Compound C157] | 1.1 nM
23 | {Biotin-PEG4}-CEYDEEFFTALARLRGSDICLYIQAKFQYLPGLCIEEILDNLGCS (disulfide 1-34, 20-44) [Compound C156] | 1.1 nM
24 | {Biotin-PEG4}-CEYDEEFFTALKRLRGGDICEYIQASFQYLPGECIEEILDNLGCS (disulfide 1-34, 20-44) [Compound C202] | 2.2 nM
25 | {Biotin-PEG4}-CEYDGEFFTALARLRGGDICQYIQAKFQYLPGLCIEEILDNLGCS-OH (disulfide 1-34, 20-44) [Compound C158] | 1.1 nM
